From US20020026051A1, “Dithiepino [6,5-b]pyridines, and related compositions and methods” (priority 1999, published 2002)

target: T1, calcium channel (Oryctolagus cuniculus, UniProt P15381); experiment: Assay for Inhibition of Nitrendipine Binding (3H-nitrendipine, heart membranes); conditions: 3H-nitrendipine displacement, rabbit heart membranes; Tables 1-5
T1 construct: from tissue; host or cells: rabbit heart membrane preparation
Protocol: Female, New Zealand white rabbits (1-2 kg) are sacrificed by cervical dislocation, and the heart is immediately removed, cleaned and chopped into small pieces. The tissue is homogenized in 5× times volume of 0.05M Hepes buffer, pH 7.4. The homogenate is centrifuged at 4000 g for 10 minutes, and the supernatant is re-centrifuged at 42,000×g for 90 minutes. The resulting membrane pellet is resuspended (0.7 ml/g weight) in 0.05M Hepes, pH 7.4 and stored at […] until used. Each tube of the binding assay contains ^3H-nitrendipine (0.05-0.50 nM), buffer, membranes (0.10 ml), and test compound in a total volume of 1.0 ml. After 90 minutes at 4° C., the bound nitrendipine is separated from the unbound by filtration on Whatman GF/C filters. After rinsing, the filters are dried and counted in a liquid scintillation counter.
Non-specific binding of ^3H-nitrendipine (that amount bound in the presence of excess unlabelled nitrendipine) is subtracted from the total bound to obtain specifically bound radiolabeled nitrendipine. The amount of specifically bound nitrendipine in the presence of a test compound is compared to that amount bound in the absence of a compound. A percent displacement (or inhibition) can then be calculated.

T1 sequence (P15381 whole entry, other chains not shown): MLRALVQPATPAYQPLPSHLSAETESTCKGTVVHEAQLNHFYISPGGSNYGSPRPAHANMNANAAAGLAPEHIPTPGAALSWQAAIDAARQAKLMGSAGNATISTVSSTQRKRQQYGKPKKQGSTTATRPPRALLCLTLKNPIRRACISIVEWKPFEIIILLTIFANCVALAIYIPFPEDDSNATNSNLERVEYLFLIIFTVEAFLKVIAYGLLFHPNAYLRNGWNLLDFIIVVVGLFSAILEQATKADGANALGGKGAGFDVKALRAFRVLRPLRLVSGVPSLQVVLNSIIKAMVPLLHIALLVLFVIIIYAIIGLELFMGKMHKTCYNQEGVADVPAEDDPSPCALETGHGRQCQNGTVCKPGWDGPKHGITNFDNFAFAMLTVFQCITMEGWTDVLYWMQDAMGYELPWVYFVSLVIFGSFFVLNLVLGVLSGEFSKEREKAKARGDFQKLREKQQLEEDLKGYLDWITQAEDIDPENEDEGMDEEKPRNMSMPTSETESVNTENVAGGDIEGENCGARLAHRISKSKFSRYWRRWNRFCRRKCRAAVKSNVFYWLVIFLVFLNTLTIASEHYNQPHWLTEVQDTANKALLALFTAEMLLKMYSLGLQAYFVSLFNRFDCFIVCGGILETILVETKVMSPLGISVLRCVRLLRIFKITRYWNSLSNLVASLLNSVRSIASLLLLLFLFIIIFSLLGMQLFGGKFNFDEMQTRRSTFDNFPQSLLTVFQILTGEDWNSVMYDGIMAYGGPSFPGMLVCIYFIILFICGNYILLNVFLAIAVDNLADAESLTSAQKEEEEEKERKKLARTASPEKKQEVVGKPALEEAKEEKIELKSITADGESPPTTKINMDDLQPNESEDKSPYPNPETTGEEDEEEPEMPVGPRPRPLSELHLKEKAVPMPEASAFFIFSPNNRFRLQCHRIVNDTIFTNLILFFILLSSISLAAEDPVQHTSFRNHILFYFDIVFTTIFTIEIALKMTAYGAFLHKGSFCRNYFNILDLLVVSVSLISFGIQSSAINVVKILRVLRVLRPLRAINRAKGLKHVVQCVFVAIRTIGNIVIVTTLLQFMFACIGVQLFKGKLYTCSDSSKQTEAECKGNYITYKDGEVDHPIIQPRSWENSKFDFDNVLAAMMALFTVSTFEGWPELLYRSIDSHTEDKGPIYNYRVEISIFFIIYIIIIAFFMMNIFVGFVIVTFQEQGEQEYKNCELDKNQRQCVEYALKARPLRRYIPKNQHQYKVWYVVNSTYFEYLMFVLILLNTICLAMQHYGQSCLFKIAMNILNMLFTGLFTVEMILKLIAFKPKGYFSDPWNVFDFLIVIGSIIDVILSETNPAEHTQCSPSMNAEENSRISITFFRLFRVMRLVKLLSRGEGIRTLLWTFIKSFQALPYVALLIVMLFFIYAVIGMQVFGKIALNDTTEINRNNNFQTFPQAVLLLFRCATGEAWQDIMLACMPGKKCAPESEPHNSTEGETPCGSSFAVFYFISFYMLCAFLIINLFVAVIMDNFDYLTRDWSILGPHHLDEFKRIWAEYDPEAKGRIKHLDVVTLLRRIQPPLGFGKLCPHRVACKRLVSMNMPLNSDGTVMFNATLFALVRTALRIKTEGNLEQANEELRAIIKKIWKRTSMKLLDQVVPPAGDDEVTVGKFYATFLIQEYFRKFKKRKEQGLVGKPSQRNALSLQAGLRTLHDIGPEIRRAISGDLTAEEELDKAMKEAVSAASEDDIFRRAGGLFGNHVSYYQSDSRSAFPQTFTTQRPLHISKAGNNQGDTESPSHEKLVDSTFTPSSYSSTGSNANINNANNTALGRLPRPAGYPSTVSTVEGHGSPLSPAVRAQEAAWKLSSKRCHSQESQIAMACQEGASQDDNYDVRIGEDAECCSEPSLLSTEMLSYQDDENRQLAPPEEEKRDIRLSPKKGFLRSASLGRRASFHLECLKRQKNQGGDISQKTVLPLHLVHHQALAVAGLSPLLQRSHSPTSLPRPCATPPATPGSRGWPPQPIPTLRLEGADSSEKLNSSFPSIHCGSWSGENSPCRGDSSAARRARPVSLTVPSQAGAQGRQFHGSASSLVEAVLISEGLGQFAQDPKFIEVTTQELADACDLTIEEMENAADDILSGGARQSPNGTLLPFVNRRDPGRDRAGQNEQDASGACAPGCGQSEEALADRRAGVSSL
T1 sequence (P13806 27-960 partner limits assumed, other chains not shown): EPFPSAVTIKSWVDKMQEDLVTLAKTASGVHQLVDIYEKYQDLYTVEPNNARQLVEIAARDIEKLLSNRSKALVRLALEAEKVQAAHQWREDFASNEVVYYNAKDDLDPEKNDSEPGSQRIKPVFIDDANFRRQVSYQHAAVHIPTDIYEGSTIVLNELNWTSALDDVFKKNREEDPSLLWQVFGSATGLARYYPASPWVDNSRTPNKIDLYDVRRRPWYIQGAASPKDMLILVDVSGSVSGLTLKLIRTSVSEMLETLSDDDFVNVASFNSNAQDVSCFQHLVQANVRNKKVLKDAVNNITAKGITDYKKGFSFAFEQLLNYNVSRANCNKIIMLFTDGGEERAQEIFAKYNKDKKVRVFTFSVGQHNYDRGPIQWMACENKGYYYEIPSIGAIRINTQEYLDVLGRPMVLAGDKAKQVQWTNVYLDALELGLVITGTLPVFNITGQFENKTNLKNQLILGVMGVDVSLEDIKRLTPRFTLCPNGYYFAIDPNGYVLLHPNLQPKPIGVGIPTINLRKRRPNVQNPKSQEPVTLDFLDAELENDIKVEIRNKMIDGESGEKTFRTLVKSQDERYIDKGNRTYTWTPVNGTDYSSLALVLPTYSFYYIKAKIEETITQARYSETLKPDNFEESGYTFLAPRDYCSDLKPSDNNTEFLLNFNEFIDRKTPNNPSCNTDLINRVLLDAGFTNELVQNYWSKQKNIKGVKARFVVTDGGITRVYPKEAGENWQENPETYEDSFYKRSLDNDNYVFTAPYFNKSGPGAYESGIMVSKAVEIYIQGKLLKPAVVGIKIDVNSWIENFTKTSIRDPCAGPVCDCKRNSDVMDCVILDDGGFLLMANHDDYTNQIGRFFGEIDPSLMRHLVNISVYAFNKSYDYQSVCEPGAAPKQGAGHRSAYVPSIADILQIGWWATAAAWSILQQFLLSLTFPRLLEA
T1 sequence (P13806 961-1106 partner limits assumed, other chains not shown): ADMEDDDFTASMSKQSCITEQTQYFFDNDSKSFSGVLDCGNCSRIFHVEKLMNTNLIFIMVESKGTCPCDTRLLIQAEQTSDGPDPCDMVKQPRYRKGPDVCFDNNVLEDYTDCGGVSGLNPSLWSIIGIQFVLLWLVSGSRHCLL

SMILES | IC50
C=C1CS(=O)(=O)C2=C(CS1(=O)=O)NC(C)=C(C(=O)OCCN(C)Cc1ccccc1)C2c1cccc(C(F)(F)F)c1F (centres unmarked) [Compound 21, 5H-1,4-Dithiepino[6,5-b]pyridine-8-carboxylic acid, 9-[2-fluoro-3-(trifluoromethyl)phenyl]-2,3,6,9-tetrahydro-7-methyl-3-methylene-2-[methyl(phenylmethyl)amino]ethyl ester 1,1,4,4-tetraoxide] | 38 nM
CC1=C(C(=O)OCCN(C)Cc2cccs2)C(c2cc(F)c(F)c(F)c2)C2=C(CS(=O)(=O)CCS2(=O)=O)N1 (centres unmarked) [Compound 10, 5H-1,4-Dithiepino[6,5-b]pyridine-8-carboxylic acid, 2,3,6,9-tetrahydro-7-methyl-9-(3,4,5-trifluorophenyl)-2-[methyl(2-thienylmethyl)amino]ethyl ester 1,1,4,4-tetraoxide] | 24 nM
CC1=C(C(=O)OCCN(C)Cc2ccccc2)C(c2cccc(C(F)(F)F)c2F)C2=C(CS(=O)(=O)CCCS2(=O)=O)N1 (centres unmarked) [Compound 28, 2H,6H-1,5-Dithiocino[3,2-b]pyridine-9-carboxylic acid, 10-[2-fluoro-3-(trifluoromethyl)phenyl]-3,4,7,10-tetrahydro-8-methyl-2-[methyl(phenylmethyl)amino]ethyl ester 1,1,5,5-tetraoxide] | 53 nM
COC(=O)C1=C(C)NC2=C(C1c1cccc(F)c1F)S(=O)(=O)CCS(=O)(=O)C2 (centres unmarked) [Compound 18, 5H-1,4-Dithiepino[6,5-b]pyridine-8-carboxylic acid, 9-(2,3-difluorophenyl)-2,3,6,9-tetrahydro-7-methyl-methyl ester 1,1,4,4-tetraoxide] | 68 nM

same assay, conditions: 3H-nitrendipine displacement, rabbit heart membranes; Tables 6-7

SMILES | IC50
CC1=C(C(=O)OCC(N)=O)C(c2c(F)cccc2Cl)C2=C(CS(=O)(=O)CCS2(=O)=O)N1 (centres unmarked) [Compound 93] | 6990 nM
CC1=C(C(=O)OCCOC(=O)CN)C(c2c(F)cccc2Cl)C2=C(CS(=O)(=O)CCS2(=O)=O)N1 (centres unmarked) [Compound 97] | 150000 nM
CC1=C(C(=O)OCC(=O)OCc2ccccc2)C(c2c(F)cccc2Cl)C2=C(CS(=O)(=O)CCS2(=O)=O)N1 (centres unmarked) [Compound 66] | 279 nM
CC1=C(C(=O)OCCCOC(=O)C(C)C)C(c2c(F)cccc2Cl)C2=C(CS(=O)(=O)CCS2(=O)=O)N1 (centres unmarked) [Compound 62] | 176 nM
CC1=C(C(=O)OCC(=O)O)C(c2c(F)cccc2Cl)C2=C(CS(=O)(=O)CCS2(=O)=O)N1 (centres unmarked) [Compound 98, 7-methyl-9-[2-fluoro-6-chlorophenyl]-2,3,6,9-tetrahydro-1,1,4,4-tetraoxide 5H-1,4-Dithiepino[6,5-b]pyridine-8-carboxylic acid carboxymethyl ester] | 316000 nM
CC1=C(C(=O)OC2CCOC2=O)C(c2c(F)cccc2Cl)C2=C(CS(=O)(=O)CCS2(=O)=O)N1 (centres unmarked) [Compound 60] | 174 nM
CC1=C(C(=O)OCC(=O)OCCc2ccccc2)C(c2c(F)cccc2Cl)C2=C(CS(=O)(=O)CCS2(=O)=O)N1 (centres unmarked) [Compound 59] | 154 nM
CC1=C(C(=O)OCCOC(=O)CN(C)Cc2ccccc2)C(c2c(F)cccc2Cl)C2=C(CS(=O)(=O)CCS2(=O)=O)N1 (centres unmarked) [Compound 47] | 50 nM
CC(=O)OCCCOC(=O)C1=C(C)NC2=C(C1c1c(F)cccc1Cl)S(=O)(=O)CCS(=O)(=O)C2 (centres unmarked) [Compound 86] | 2120 nM
CC1=C(C(=O)OCCOC(=O)CC(C)C)C(c2c(F)cccc2Cl)C2=C(CS(=O)(=O)CCS2(=O)=O)N1 (centres unmarked) [Compound 38] | 35 nM
CC1=C(C(=O)OCCCOC(=O)c2ccccc2)C(c2c(F)cccc2Cl)C2=C(CS(=O)(=O)CCS2(=O)=O)N1 (centres unmarked) [Compound 41, 7-methyl-9-[2-fluoro-6-chlorophenyl]-2,3,6,9-tetrahydro-1,1,4,4-tetraoxide 5H-1,4-Dithiepino[6,5-b]pyridine-8-carboxylic acid 3-benzoyloxypropyl ester] | 43 nM
CC1=C(C(=O)OCCN)C(c2c(F)cccc2Cl)C2=C(CS(=O)(=O)CCS2(=O)=O)N1 (centres unmarked) [Compound 91] | 4840 nM
CC1=C(C(=O)OCCOC(=O)CN(C)C)C(c2c(F)cccc2Cl)C2=C(CS(=O)(=O)CCS2(=O)=O)N1 (centres unmarked) [Compound 84] | 1230 nM
